Results on six compounds are retold here after US20230146782A1, “DEOXYCHOLIC ACID COMPOUNDS, PHARMACEUTICAL COMPOSITIONS AND USES THEREOF” (priority 2019, published 2023).

Values joined by “and” are separate entries in the source; they are usually repeats but may differ in a detail not shown here. Equal entries are not always repeated. Where two headings read alike, the source gives them in different places.

The conditions of data set [1]: clinical treatment of liver diseases such as fatty liver; cited from earlier work.
Data set [2] is described as follows: Pharmacokinetic test: gavage to rats, active metabolites in plasma and liver by LC-MS/MS. The following applies: for half-life: T1/2, rats; for half-life / Tlast: gavage of obeticholic acid.
Procedure: (§1) Formulation of preparation and dosing: An appropriate amount of the test sample was precisely weighed, and mixed with an appropriate volume of a solvent to obtain a clear solution or a homogeneous suspension. The preparation was administered to animals within 4 hours after formulation. The dosage formulation would be administered by oral gavage in accordance with facility standard operating procedures. The dosage volume would be determined by the body weights of the animals collected on the morning of administering.
(§2) Blood collection: Blood (approx. 0.2 ml per point in time) would be acupunctured each time from the jugular vein of every animal into a polypropylene tube. All blood samples would be transferred to pre-cooled commercial EDTA-K2 test tubes, and kept on wet ice until they were centrifuged.
(§3) Plasma processing: Blood samples would be centrifuged (3200 rpm, 10 min) at approximately 4° C. Plasma was collected separately and transferred to pre-labeled PP tubes in wet ice at each point in time, and then immediately precipitated by ACN (6 IS) (the ratio of plasma: ACN was 1:4). Centrifugation (10 min, 12,000 rpm) was carried out again to obtain a supernatant. The supernatant was quickly frozen on dry ice and kept at −70±10° C. before LC/MS/MS analysis.
(§4) Liver processing: Liver tissues were collected at each point in time, washed twice with pre-cooled deionized water, and dried with filter paper. Liver tissues were immediately homogenized with 10-times volume of a methanol-water solution (1:2, v/v). After homogenization, a portion of liver tissue homogenate (e.g., 200 uL of homogenate) was immediately measured and delivered to an analyst. After precipitated on wet ice, the samples were centrifuged, and a supernatant was collected and stored in a refrigerator at −70±10° C. before LC-MS/MS analysis. From the remaining liver homogenate, 800 uL of the homogenate was measured as a spare.
Data set [3] deals with T1, farnesoid X receptor (FXR) (Homo sapiens, UniProt Q96RI1).
T1 sequence (Q96RI1 1-486): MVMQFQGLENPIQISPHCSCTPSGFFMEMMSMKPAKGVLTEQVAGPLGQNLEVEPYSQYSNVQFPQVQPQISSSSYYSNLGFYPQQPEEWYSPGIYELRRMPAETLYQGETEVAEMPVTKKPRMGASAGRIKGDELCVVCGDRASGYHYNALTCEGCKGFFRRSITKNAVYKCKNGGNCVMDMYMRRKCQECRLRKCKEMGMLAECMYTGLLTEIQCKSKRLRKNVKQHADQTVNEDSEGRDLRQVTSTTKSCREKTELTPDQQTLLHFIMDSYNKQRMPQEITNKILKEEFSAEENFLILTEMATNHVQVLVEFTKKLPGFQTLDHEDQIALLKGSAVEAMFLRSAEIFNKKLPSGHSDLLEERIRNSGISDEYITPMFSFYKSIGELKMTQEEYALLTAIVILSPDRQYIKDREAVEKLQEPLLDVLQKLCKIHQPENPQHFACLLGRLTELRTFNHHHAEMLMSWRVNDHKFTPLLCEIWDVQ
The note with it: reference literature: sandwich-cultured human hepatocytes; cited from earlier work.

The conditions of data set [4]: rat.
Procedure: as §1, §2, §3, §4
A short description of data set [5]: in vivo. The note with it: rat, po.
Procedure: as §1, §2, §3, §4
[6] abbreviates: rat, plasma, po, 0.0576 mmol/kg.

Broadly, the Cmax is the highest concentration seen after dosing. In general, Tmax refers to the time at which the peak concentration occurs. What is called half-life is the time needed for the level to fall by half in the phase considered. By AUC(0-t) is commonly meant exposure summed from dosing to a finite time, without extrapolation to infinity. On to `CC[C@H]1[C@@H](O)[C@@H]2[C@H](CC[C@]3(C)[C@@H]([C@H](C)CCC(=O)O)CC[C@@H]23)[C@@]2(C)CC[C@@H](O)C[C@@H]12` [OCA, 6-α-ethylchenodeoxycholic acid], for which, in data set [1], the Incidence of pruritus is 63% and the Incidence of rash entry is “up to 32%”. In data set [2] (rat, liver and plasma (AUC ratio), po, 0.0576 mmol/kg), the Kp turned out to be 0.663. Moreover, in data set [2] (rat, liver, po, 0.0576 mmol/kg), the Cmax is 17900 ng/g and the Tmax was determined as 0.5 h. The half-life in data set [2] (rat, liver, po, 0.0576 mmol/kg, OCA in liver) was 3.33 h. Further, in data set [2] (setting [6]), the AUC(0-inf) was found to be 50300 ng·h/mL, the AUC(0-t) was 48100 ng·h/mL, the Cmax is 24300 ng/mL and the Tmax came out at 0.5 h. Besides, in data set [2] (rat, plasma, po, 0.0576 mmol/kg, OCA in plasma), the half-life was 4.35 h. Also, in data set [2] (rats, 0.0576 mmol/kg, OCA in liver), the Tlast was 24.0 h. Further, the Tlast in data set [2] (rats, 0.0576 mmol/kg, OCA in plasma) is 24.0 h.

`CC[C@H]1[C@@H](O)[C@@H]2[C@H](CC[C@]3(C)[C@@H]([C@H](C)CCC(=O)NCCS(=O)(=O)O)CC[C@@H]23)[C@@]2(C)CC[C@@H](O)C[C@@H]12` [OCA-Tau, reference compound]: in data set [3], the “Effect on activation of the farnesoid X receptor (FXR) activity, compared with obeticholic acid” value was “almost the same as the effect of the obeticholic acid”.

The term MRT inf denotes a mean duration of stay, worked out from the concentration-time curve. A word on the MRT last: it is the average time that molecules of a dose stay in the body. Take `CC[C@H]1[C@@H](O)[C@@H]2[C@H](CC[C@]3(C)[C@@H]([C@H](C)CCC(=O)NCC(=O)O)CC[C@@H]23)[C@@]2(C)CC[C@@H](O)C[C@@H]12` [Compound 4]: in data set [4], the “In vivo active compounds in the rats after administration” value (“In vivo active compounds in the rats” below) was “Compound 4”. Also, the Tlast in data set [4] (in vivo) turned out to be 24.0 h. Besides, in data set [4] (in vivo, po), the AUC0-last was determined as 107187 ng·h/g; the “AUC ratio of the obeticholic acid-glycine conjugate 4 in liver/plasma” value is listed as 14.7; the AUC(0-inf) came out at 110040 ng·h/g; the “Total AUC in plasma and liver” value worked out at 117503. For the same compound, the “Total AUC of the Compound 4 in the liver and plasma” value in data set [4] (in vivo, po) amounted to 117503. Besides, the “AUC Ratio (liver/plasma)” value in data set [4] (in vivo, po, 0.0576 mmol/kg) is recorded as 42.3. For the same compound, in data set [3], the “Effect on activation of the farnesoid X receptor (FXR) activity, compared with obeticholic acid” value is “almost the same as the effect of the obeticholic acid”. In data set [5], this compound showed a Kp of 14.7. In data set [5] (0.0576 mmol/kg), the AUC(0-inf) is 7460 ng·h/mL; the AUC(0-t) was found to be 7310 ng·h/mL; the Cmax is 788 ng/mL and 16800 ng/g; the Tmax is 4 h. Further, the MRT inf in data set [5] (0.0576 mmol/kg, MRT0-inf) was determined as 6.1 h. Besides, the MRT last in data set [5] (0.0576 mmol/kg, MRT0-last) came out at 5.56 h. Also, in data set [5] (0.0576 mmol/kg, T1/2), the half-life is 4.79 h.

For the compound `CCOC(=O)[C@@H](N)Cc1ccc(OC(=O)CNC(=O)CC[C@@H](C)[C@H]2CC[C@H]3[C@@H]4[C@H](O)[C@H](CC)C5C[C@H](O)CC[C@]5(C)[C@H]4CC[C@]23C)cc1` (some centres unmarked) [Compound I-6], the “In vivo active compounds in the rats” value in data set [4] is on record as “Compound 4”. The “Total effective drug amount in the liver, compared with OCA” value in data set [2] (rats, gavage, same molar dosage as OCA) is reported as “significantly increased”.

As for `CC[C@@H]1C2C[C@H](O)CC[C@]2(C)[C@H]2CC[C@]3(C)[C@@H]([C@H](C)CCC(=O)NCC(=O)OCc4ccccc4)CC[C@H]3[C@@H]2[C@@H]1O` (some centres unmarked) [Compound I-5], in data set [4], the “In vivo active compounds in the rats” value is listed as “Compound 4”. Also, in data set [4] (in vivo), the “Decrease of AUC of the effective drug in the blood versus direct administration of OCA” value was determined as 84%; the “Increase of total AUC of Compound 4 in liver and plasma versus Compound 4 directly administered” value worked out at 28%; the “Total effective drug amount in the liver, compared with OCA” value is reported as “significantly increased”. For the same compound, in data set [4] (in vivo, po), the “AUC ratio of the obeticholic acid-glycine conjugate 4 in liver/plasma” value came to 18.7; the “Total AUC of the Compound 4 in the liver and plasma” value is 150442.

For `CC[C@@H]1C2C[C@H](O)CC[C@]2(C)[C@H]2CC[C@]3(C)[C@@H]([C@H](C)CCC(=O)NCC(=O)OC(C)C)CC[C@H]3[C@@H]2[C@@H]1O` (some centres unmarked) [Compound I-4], in data set [4], the “In vivo active compounds in the rats” value is reported as “Compound 4”. The “Total effective drug amount in the liver, compared with OCA” value in data set [4] (in vivo) is “significantly increased”.
